Measured values: ChEMBL document CHEMBL4665733, “Selective thyroid hormone receptor β agonists with oxadiazolone acid isosteres” (Bioorg Med Chem Lett, 2020)
Active and inactive are the calls of the source. The rule behind the calls is not given here.

Key:
Homo sapiens = species on record: Homo sapiens; test: Selectivity index, ratio of EC50 for THRalpha (unknown origin) to EC50 for THRbeta (unknown origin)
[1] = Dissociation constant, pKa of compound; type: physicochemical
Mus musculus [2] = test: Anti-hepatosteatosis activity in C57BL/6J mouse model of high fat-induced obesity assessed as reduction in liver steatosis at 30 mg/kg, po via gavage administered once daily for 28 days by hematoxylin-eosin staining based histological analysis; type: functional, organism-based; settings: time 28.0 day
Mus musculus [3] = test: Agonist activity at THRbeta in C57BL/6J mouse model of NASH assessed as increase in CYP7A1 gene expression in liver at 30 mg/kg, po via gavage administered once daily for 28 days; type: functional, organism-based; settings: time 28.0 day
[4] = Oral bioavailability in Sprague-Dawley rat at 2 mg/kg; type: ADME, organism-based; settings: in vivo
Mus musculus [5] = test: Agonist activity at THRbeta in C57BL/6J mouse model of NASH assessed as increase in Dio1 gene expression in liver at 30 mg/kg, po via gavage administered once daily for 28 days; type: functional, organism-based; settings: time 28.0 day
[6] = MRT in Sprague-Dawley rat at 3 mg/kg, ip; type: ADME, organism-based; settings: in vivo
Rattus norvegicus = species on record: Rattus norvegicus; test: Antihyperlipidemic activity in high cholesterol diet-induced Sprague-Dawley rat model of hypercholesterolemia assessed as reduction in serum total cholesterol level after 24 hrs; type: functional, organism-based
[7] = Volume of distribution at steady state in Sprague-Dawley rat at 1 mg/kg, iv and 2 mg/kg, po; type: ADME, organism-based; settings: in vivo, read-out: Vdss
[8] = AUC (0 to 24 hrs) in C57BL/6J mouse at 30 mg/kg, po administered via gavage as single dose; type: ADME, organism-based; design: time < 24 hr, route oral, dose 30 mg/kg; settings: in vivo
Mus musculus [9] = test: Antifibrotic activity in CCl4-induced C57BL/6J mouse model of liver fibrosis assessed as reduction in liver fibrosis at 30 mg/kg, po via gavage administered once daily for 28 days by Sirius Red staining based histological analysis; type: functional, organism-based; settings: time 28.0 day
[10] = Plasma clearance in Sprague-Dawley rat at 1 mg/kg, iv and 2 mg/kg, po; type: ADME, organism-based
[11] = Tmax in Sprague-Dawley rat at 3 mg/kg, ip; type: ADME, organism-based; settings: in vivo
[12] = Half life in cynomolgus monkey at 10 mg/kg, po measured up to 24 hrs by LC-MS/MS analysis; type: ADME, organism-based, Macaca fascicularis; settings: in vivo
[13] = Half life in Beagle dog at 10 mg/kg, po measured up to 24 hrs by LC-MS/MS analysis; type: ADME, organism-based, Canis lupus familiaris; settings: in vivo
[14] = Half life in Sprague-Dawley rat at 10 mg/kg, po measured up to 24 hrs by LC-MS/MS analysis; type: ADME, organism-based; settings: in vivo

SMILES	Ratio EC50 (Homo sapiens)	further results
CC(C)c1cc(Oc2c(Cl)cc(N(C)Cc3noc(=O)[nH]3)cc2Cl)nn(C)c1=O	0.5	
CC(C)c1cc(Oc2c(Cl)cc(NC(=O)c3noc(=O)[nH]3)cc2Cl)nn(C)c1=O	14.1	pKa [1]: 4.5; Activity (Mus musculus [2]): Active; Activity (Mus musculus [3]): Active; bioavailability [4]: 24%; Activity (Mus musculus [5]): Active; MRT [6]: 1.8 h; Activity (Rattus norvegicus): Dose-dependent effect; Vd [7]: 0.53 L/kg; AUC(0-t) at 24 h [8]: 17.2 µg·h/mL; Activity (Mus musculus [9]): Active; clearance [10]: 0.78 L/h/kg; Tmax [11]: 1 h
CC(C)c1cc(Cc2c(Cl)cc(NCc3noc(=O)[nH]3)cc2Cl)nn(C)c1=O	1.7	
CC(C)c1cc(Oc2c(Cl)cc(-n3nc(C#N)c(=O)[nH]c3=O)cc2Cl)n[nH]c1=O	15	
CC(C)c1cc(Oc2c(Cl)cc(NC(C)c3noc(=O)[nH]3)cc2Cl)nn(C)c1=O (racemic)	0.2	
CC(C)c1cc(Oc2c(Cl)cc(NCc3noc(=O)[nH]3)cc2Cl)nn(C)c1=O	8.6	
CC(C)c1cc(Cc2c(Cl)cc(NC(=O)c3noc(=O)[nH]3)cc2Cl)nn(C)c1=O	14.5	
Cc1cc(OCP(=O)(O)O)cc(C)c1Cc1ccc(O)c(C(C)C)c1 [MB07344]	2.1	half-life [12]: 6.5 h; half-life [13]: 10.2 h; half-life [14]: 9.3 h
CC(C)c1cc(C(=O)c2c(Cl)cc(NC(=O)c3noc(=O)[nH]3)cc2Cl)nn(C)c1=O	6.1	
CC(C)c1cc(C(=O)c2c(Cl)cc(NCc3noc(=O)[nH]3)cc2Cl)nn(C)c1=O	0.8	

Further lines, with some results ahead:

Ratio EC50 (Homo sapiens)	SMILES	further results
16.2	CCC(O)c1cc(Oc2c(Cl)cc(NC(=O)c3noc(=O)[nH]3)cc2Cl)n[nH]c1=O (racemic)	
21.6	CC(C)c1cc(Oc2c(Cl)cc(NC(=O)c3noc(=O)[nH]3)cc2Cl)n[nH]c1=O	Activity (Rattus norvegicus): Dose-dependent effect
11.1	CC(C)(O)c1cc(Oc2c(Cl)cc(NC(=O)c3noc(=O)[nH]3)cc2Cl)n[nH]c1=O	
12.3	CC(C)(C)c1cc(Oc2c(Cl)cc(NC(=O)c3noc(=O)[nH]3)cc2Cl)n[nH]c1=O	
9.2	CC(CO)c1cc(Oc2c(Cl)cc(NC(=O)c3noc(=O)[nH]3)cc2Cl)nn(C)c1=O (racemic)	
16.5	CC(O)c1cc(Oc2c(Cl)cc(NC(=O)c3noc(=O)[nH]3)cc2Cl)n[nH]c1=O (racemic)	
1.8	CC(C)c1cc(Oc2c(Cl)cc(NCc3noc(=O)[nH]3)cc2Cl)n[nH]c1=O	
